Reference: patent publication US8987302B2, “Treatment of hepatitis C virus related diseases using hydroxychloroquine or a combination of hydroxychloroquine and an anti-viral agent” (Panmed Ltd., priority 2010, dated 2015)

Experiments:
HCV genotype 1b replicon = assay: HCV RNA replication in Huh7 replicon cells (RT-PCR), single drugs and combinations; format: cell-based, hepatitis C virus; conditions: alone, 72 hours
NiV = conditions: hamster, in vivo; cited from earlier work
HeV = conditions: hamster, in vivo; cited from earlier work
[1] = tested on: JFH1/CsN6A4 infected Huh7 cells; assay: Microarray gene expression in JFH1/CsN6A4 infected Huh7 cells; conditions: for Number of genes modulated by both HCQ and CQ, Down-regulated / Number of genes modulated by both HCQ and CQ, Up-regulated: 40 μM; for Number of genes modulated by both HCQ and CQ, Down-regulated: FC≦0.5; for Number of genes modulated by both HCQ and CQ, Up-regulated: FC≧2; for number of the 118 HCV modulated genes down-regulated (FC≦0.5) by both compounds / number of the 118 HCV modulated genes up-regulated (FC≧2) by both compounds / expression of genes involved in the IFN signaling: 48 hours treatment; for expression of genes involved in the IFN signaling: IFN 100IU
[2] = tested on: Huh7 harboring replicon cells; assay: Microarray gene expression in Huh7 harboring replicon cells; format: cell-based, Human; conditions: 10 μM
Huh 5-2 cells = conditions: 6.6 μM; cited from earlier work
[3] = tested on: HCV replicon-Huh-7/neo cells; assay: Replication levels of HCV replicon by NPTII quantification; conditions: 0.5, 1 or 10 μM, 72 hours
replicon cells = assay: Cytotoxicity, MTS assay of replicon cells; conditions: tested doses, 72 hours
[4] = after either 12 hours or 48 hours of treatment
[5] = cut-off at 12 hours and 24 hours
[6] = 48 h of antiviral treatment, vs untreated infected cells

For `CCN(CC)CCCC(C)Nc1ccnc2cc(Cl)ccc12` (stereo not drawn) [CQ, chloroquine], the “HCV RNA replication” value (HCV genotype 1b replicon) is given as “inhibited HCV RNA replication”, the protection of hamsters (NiV) is given as “did not protect hamsters” and the protection of hamsters (HeV) is given as “did not protect hamsters”. For the same compound, the “Number of genes modulated by both HCQ and CQ, Down-regulated” value (shortened to “Number of genes modulated … Down-regulated”) ([1]; 12 h) was 9, the “Number of genes modulated by both HCQ and CQ, Up-regulated” value (“Number of genes modulated … Up-regulated” for short) ([1]; 12 h) was 38 and the “Number of genes modulated … Down-regulated” value ([1]; 48 h) was 262. For the same compound, the “Number of genes modulated … Up-regulated” value ([1]; 48 h) was 24, the “Number of genes Induced by JFH1 infection and Down-regulated by treatment” value ([1]; 48 h) was 104 and the “Number of genes Induced by JFH1 infection and Up-regulated by treatment” value ([1]; 48 h) was 1. The “Number of genes Repressed by JFH1 infection and Down-regulated by treatment” value ([1]; 48 h) was 2, the “Number of genes Repressed by JFH1 infection and Up-regulated by treatment” value ([1]; 48 h) was 11 and the “number of the 118 HCV modulated genes down-regulated (FC≦0.5) by both compounds” value [1] was 106. For the same compound, the “number of the 118 HCV modulated genes up-regulated (FC≧2) by both compounds” value [1] was 12 and the “genes significantly up-regulated in common with HCQ and CQ” value [1, 4] was 62 genes.

For `CCN(CCO)CCCC(C)Nc1ccnc2cc(Cl)ccc12` (stereo not drawn) [HCQ, 2-[[4-[(7-chloro-4-quinolinyl)amino]pentyl]ethylamino]ethanol, reference compound], the “HCV RNA replication” value (HCV genotype 1b replicon) was “inhibited HCV RNA replication in a dose dependent manner”, the “Number of genes transcriptionally modulated, Down-regulated” value ([2]; 6 hours) was 5 and the “Number of genes transcriptionally modulated, Down-regulated” value ([2]; 12 hours) was 30. For the same compound, the “Number of genes transcriptionally modulated, Up-regulated” value ([2]; 12 hours) was 7, the “Number of genes transcriptionally modulated, Down-regulated” value ([2]; 24 hours) was 63 and the “Number of genes transcriptionally modulated, Up-regulated” value ([2]; 24 hours) was 23. The “number of significantly repressed genes (FC≦0.5) among the 23 modulated genes” value [2, 5] was 20, the “number of up-regulated genes (FC≧2) among the 23 modulated genes” value [2, 5] was 3 and the “cell growth with respect to the untreated control” value (Huh 5-2 cells) was “more than 81%”. For the same compound, the “replication level of HCV replicon (% NPTII), number of HCV infected cells” value [3] was “dose-dependent decrease”, the “Number of genes modulated … Down-regulated” value ([1]; 12 h) was 9 and the “Number of genes modulated … Up-regulated” value ([1]; 12 h) was 38. The “Number of genes modulated … Down-regulated” value ([1]; 48 h) was 262, the “Number of genes modulated … Up-regulated” value ([1]; 48 h) was 24 and the “Number of genes Induced by JFH1 infection and Down-regulated by treatment” value ([1]; 48 h) was 104. For the same compound, the “Number of genes Induced by JFH1 infection and Up-regulated by treatment” value ([1]; 48 h) was 1, the “Number of genes Repressed by JFH1 infection and Down-regulated by treatment” value ([1]; 48 h) was 2 and the “Number of genes Repressed by JFH1 infection and Up-regulated by treatment” value ([1]; 48 h) was 11. The “number of the 118 HCV modulated genes down-regulated (FC≦0.5) by both compounds” value [1] was 106, the “number of the 118 HCV modulated genes up-regulated (FC≧2) by both compounds” value [1] was 12 and the “expression of genes involved in the IFN signaling” value [1] was “None of the genes regulated by IFN were found to be modulated”. The “genes significantly down-modulated in common with HCQ and CQ” value [1, 4] was 271 genes and the “genes significantly up-regulated in common with HCQ and CQ” value [1, 4] was 62 genes.

In the case of `NC(=O)c1ncn([C@@H]2O[C@H](CO)[C@@H](O)[C@H]2O)n1` [Ribavirin, ribavirin], the “delay of death from viral disease” value (NiV) is given as “approximately 5 days” and the “effect on death from viral disease” value (HeV) is given as “no significant effect”.

For IFNα, the “HCV RNA replication” value (HCV genotype 1b replicon) was “inhibited HCV RNA replication in a dose dependent manner”, the cell viability (replicon cells) was “not affected” and the “Fold Change, AMBRA1” value [1, 6] was 0.4. For the same compound, the “Fold Change, ATF2” value [1, 6] was 0.4, the “Fold Change, ATF3” value [1, 6] was 0.2 and the “Fold Change, ATF4” value [1, 6] was 0.5. For the same compound, the “Fold Change, ATF7IP” value [1, 6] was 0.4, the “Fold Change, ATG2A” value [1, 6] was 0.3 and the “Fold Change, ATG4B” value [1, 6] was 1.3. For the same compound, the “Fold Change, ATG7” value [1, 6] was 0.9, the “Fold Change, ATG12” value [1, 6] was 0.8 and the “Fold Change, BBC3” value [1, 6] was 0.1. For the same compound, the “Fold Change, BCL3” value [1, 6] was 0.4, the “Fold Change, BECN1” value [1, 6] was 1.4 and the “Fold Change, BMF” value [1, 6] was 0.2. For the same compound, the “Fold Change, CXCL5” value [1, 6] was 1.3, the “Fold Change, CYP1A1” value [1, 6] was 0.4 and the “Fold Change, CYR61” value [1, 6] was 0.2. The “Fold Change, DAPK3” value [1, 6] was 0.3, the “Fold Change, DDIT3” value [1, 6] was 0.1 and the “Fold Change, DDIT4” value [1, 6] was 0.3. For the same compound, the “Fold Change, DUSP1” value [1, 6] was 0.1, the “Fold Change, DUSP4” value [1, 6] was 0.2 and the “Fold Change, DUSP8” value [1, 6] was 0.1. For the same compound, the “Fold Change, FOXO3” value [1, 6] was 0.5, the “Fold Change, GABARAPL1” value [1, 6] was 0.4 and the “Fold Change, GADD45A” value [1, 6] was 0.2. The “Fold Change, GADD45B” value [1, 6] was 0.1, the “Fold Change, GADD45G” value [1, 6] was 0.3 and the “Fold Change, HRK” value [1, 6] was 0.7. The “Fold Change, ICAM1” value [1, 6] was 2.0, the “Fold Change, IKBKAP” value [1, 6] was 1.3 and the “Fold Change, JUN” value [1, 6] was 0.2. The “Fold Change, MAP1LC3B” value [1, 6] was 0.4, the “Fold Change, MYC” value [1, 6] was 0.3 and the “Fold Change, NFKB1” value [1, 6] was 0.8. For the same compound, the “Fold Change, NFKBIA” value [1, 6] was 0.3, the “Fold Change, NFKBIB” value [1, 6] was 0.4 and the “Fold Change, NFKBIE” value [1, 6] was 0.3. The “Fold Change, NFKBIL2” value [1, 6] was 1.5, the “Fold Change, NKIRAS1” value [1, 6] was 0.4 and the “Fold Change, NKIRAS2” value [1, 6] was 1.0. For the same compound, the “Fold Change, NKRF” value [1, 6] was 1.0, the “Fold Change, PDRG1” value [1, 6] was 0.6 and the “Fold Change, PIK3C3” value [1, 6] was 0.5. The “Fold Change, PRKAA1” value [1, 6] was 0.3, the “Fold Change, RELB” value [1, 6] was 0.4 and the “Fold Change, SESN2” value [1, 6] was 0.2. The “Fold Change, SIRT1” value [1, 6] was 0.5, the “Fold Change, SQSTM1” value [1, 6] was 0.5 and the “Fold Change, STK11” value [1, 6] was 0.9. The “Fold Change, TANK” value [1, 6] was 1.2, the “Fold Change, TNFRSF10B” value [1, 6] was 0.6 and the “Fold Change, TRAF2” value [1, 6] was 0.7. The “Fold Change, TRAF4” value [1, 6] was 0.7, the “Fold Change, TSC1” value [1, 6] was 0.6 and the “Fold Change, TSC2” value [1, 6] was 0.9. For the same compound, the “Fold Change, UBD” value [1, 6] was 0.8, the “Fold Change, ULK1” value [1, 6] was 0.3 and the “expression of genes involved in the IFN signaling” value [1] was “significantly increased”.
